From patent US20090162280A1, “DETECTING SOLUBLE A-BETA” (GENERAL ELECTRIC COMPANY, priority 2007, published 2009)

What was measured:
Aβ 1-40 fibrils = target: T1, Aβ 1-40 fibrils (Homo sapiens, UniProt P05067); assay: SPA competition binding against 3H-PIB on A-beta fibrils; details: ~30 nM [3H]PIB, 10 μg Aβ 1-40 fibrils, unlabeled competitor
T1 construct: Lyophilized human beta-amyloid 1-40 peptide (Catalog number H-1194, Bachem); purchased Bachem H-1194 (unlabelled), H-5914 (biotinylated)
Method: For the ^3H-PIB binding reaction, 10 μg Aβ 1-40 fibrils were incubated with ˜30 nM [^3H]PIB in the presence of the unlabeled competitors in a total volume of 90 μl PBS. […] Non-specific binding wells contained PBS instead of fibril/oligomer. Assays were incubated at room temperature for 2 hr before addition of 10 μl YSi-streptavidin bead (0.13 mg). Assays were shaken for 1 min and then incubated overnight before counting the following morning using Microbeta.
(§2) Data analyses were performed using Sigma Plot or GraphPad Prism® version 4. Curves were fitted using non-linear regression. KD values and IC50 values were estimated from the binding curves.

1-42 fibrils = 1-42 fibrils (Homo sapiens, UniProt P05067); assay: SPA binding of 3H-49b to 1-42 fibrils; details: same conditions used to measure binding to soluble oligomers
Sequence of 1-42 fibrils (P05067 672-713): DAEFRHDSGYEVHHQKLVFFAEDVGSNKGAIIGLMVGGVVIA

[1] = target: T2, soluble A-beta oligomers (beta-amyloid 1-42 oligomer, 20% biotin) (Homo sapiens, UniProt P05067); assay: SPA saturation / direct binding of tritium labeled probes to soluble A-beta oligomers
T2 construct: 1 mg of human beta-amyloid 1-42 (H-1368, Bachem); purchased Bachem H-1368 (unlabelled), H-5642 (biotinylated)
T2 sequence (P05067 672-713): as above
Method: For the saturation-binding assay, isotopic dilution of radiolabeled 49b with unlabeled 49b was performed. ^3H-49b was added to 500 uM of unlabeled 49b to a final concentration of 50 μCi/mL ^3H-49b. The probe solution was then serially diluted in PBS to give six solutions giving 6.6, 13.1, 26.3, 52.5, 105, or 210 uM in the final assay well. Each concentration of the probe solution was incubated with 12 μg beta-amyloid 1-42 oligomer (20% biotin) or 1-40 (20% biotin) fibrils in a total volume of 90 μL. Assays were incubated at room temp for 2 hrs before addition of 10 μL YSi-streptavidin (0.25 mg) SPA bead. Assays were set-up in triplicate in 96-well NBS plates (Costar). Assays were incubated overnight and counted the following morning. […] Assay conditions were the same as described in saturation binding assay.
as §2
A direct binding assay using tritium labeled 49b was performed against oligomers or fibrils by scintillation proximity assay (SPA). Beta-amyloid containing 20% biotin and tritiated 49b were incubated in solution for two hours prior to addition of the Ysi-Streptavidin beads.

[2] = target: T3, beta-amyloid 1-40 fibrils (20% biotin) (Homo sapiens, UniProt P05067); assay: SPA saturation binding of 3H-49b to 1-40 fibrils; details: same conditions as for soluble oligomers; compared with oligomers
T3 construct: Lyophilized human beta-amyloid 1-40 peptide (Catalog number H-1194, Bachem); purchased Bachem H-1194 (unlabelled), H-5914 (biotinylated)
T3 sequence (P05067 672-711): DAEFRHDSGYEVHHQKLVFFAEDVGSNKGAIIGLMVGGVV
Method: B. Insoluble A-beta (1-40) fibril formation: Lyophilized human beta-amyloid 1-40 peptide (Catalog number H-1194, Bachem) was solubilized with HFIP to produce a dry clear film following the process described above for beta-amyloid 1-42. The clear film of beta-amyloid 1-40 was diluted with 10 mM phosphate buffer, pH 7.4, containing 1 mM EDTA, such that final Aβ concentration was 0.5 mg/ml, then mixed briefly. The solution was incubated at 37° C. on an orbital shaker set at 200 rpm for 48 h. A cloudy solution was produced, and the fibril production was confirmed by measuring changes in fluorescence of Thioflavin T, as well as by atomic force microscopy and transmission electron microscopy. Fibrils were used immediately after their production was confirmed.
(§1) For SPA and atomic force microscopy experiments, preparations of soluble oligomers and fibrils contained 20% biotinylated beta-amyloid 1-42 and 1-40, respectively (H-5642, H-5914, Bachem).
For the saturation-binding assay, isotopic dilution of radiolabeled 49b with unlabeled 49b was performed. ^3H-49b was added to 500 uM of unlabeled 49b to a final concentration of 50 μCi/mL ^3H-49b. The probe solution was then serially diluted in PBS to give six solutions giving 6.6, 13.1, 26.3, 52.5, 105, or 210 uM in the final assay well. […] Assays were incubated overnight and counted the following morning. […]

[3] = target: T2, soluble A-beta oligomers (beta-amyloid 1-42 oligomer, 20% biotin); assay: SPA competition binding against tritium labeled 49b on soluble A-beta oligomers; details: for IC50: 130 nM 3H-49b, unlabeled competitor; for % inhibition: 50 uM unlabeled competitor, 130 nM tritium labeled-49b
Method: A. Soluble A-beta. 1 mg of human beta-amyloid 1-42 (H-1368, Bachem) and 500 uL of 1,1,1,3,3,3 hexafluoro-2-propanol (HFIP) (Aldrich) were chilled in separate bottles on ice for 30 minutes. Cold beta-amyloid 1-42 was solubilized with cold HFIP. The mixture was incubated for 1 hr at room temperature until it turned clear. The resulting solution was then dried to a film under vacuum. The film was dissolved again in cold HFIP and incubated another 1 hr at room temperature. The resulting solution was separated into aliquots in several microcentrifuge tubes. HFIP was removed under vacuum, and the films were stored at −20° C. until use. To prepare soluble oligomer, the film was dissolved in appropriate amount of dry DMSO (Sigma), and Ham's F12 media (Biosource) or PBS (Sigma, D8537) was added and incubated at 4° C. for 24 hours (final concentration of 200 uM or 0.9 mg/mL beta-amyloid in 2% DMSO). The tube containing the soluble oligomers was centrifuged at 13,000 rpm for 5 minutes, and its supernatant was transferred to a clean tube.
The three compounds shown in Table 1 were synthesized and evaluated for their ability to bind to soluble A-beta using the scintillation proximity assays (SPA) and/or AFM as described below. The percent inhibition reported was for 50 uM of the indicated unlabeled competitor and 130 nM of tritium labeled-49b.
as §1
Lyophilized Streptavidin-Ysi beads (GE Healthcare) were reconstituted to 100 mg/mL in deionized water, and then further diluted in deionized water to give a suspension containing 0.25 mg/10 μL water. Unlabeled 49b, PIB and compound of formula III (353207) were dissolved in DMSO to give a final stock concentration of 15 mM.
For the saturation-binding assay, isotopic dilution of radiolabeled 49b with unlabeled 49b was performed. ^3H-49b was added to 500 uM of unlabeled 49b to a final concentration of 50 μCi/mL ^3H-49b. The probe solution was then serially diluted in PBS to give six solutions giving 6.6, 13.1, 26.3, 52.5, 105, or 210 uM in the final assay well. Each concentration of the probe solution was incubated with 12 μg beta-amyloid 1-42 oligomer (20% biotin) or 1-40 (20% biotin) fibrils in a total volume of 90 μL. Assays were incubated at room temp for 2 hrs before addition of 10 μL YSi-streptavidin (0.25 mg) SPA bead. Assays were set-up in triplicate in 96-well NBS plates (Costar). Assays were incubated overnight and counted the following morning. […] The specific activities of four probes were different, however the level of activity was the same at the concentrations where the probes were tested. […]

[4] = saturation binding with oligomers

T1 sequence (P05067 672-711): as above

SMILES | competition of tritium labeled PIB binding to fibrils (in words) (Aβ 1-40 fibrils) | affinity for 1-42 fibrils (1-42 fibrils) | Kd ([1]; 3H-49b isotopically diluted with unlabeled 49b, incubated with oligomers, read-out: binding constant (saturation binding)) [µM] | specificity, oligomers over fibrils ([1]; direct binding of 3H-49b, oligomers versus fibrils) | Bmax [1, 4] | molar ratio probe:beta-amyloid at Bmax [1, 4] | binding to 1-40 fibrils [2] | IC50 [3] [µM] | % inhibition [3] [%]
O=Cc1ccc(-c2oc3ccccc3c2CO)o1 [Formula II, 2-(2-formyl-5-furanyl)-3-hydroxymethyl benzofuran] | not competed | no measurable affinity could be determined | 50 | showed specificity to oligomers over fibrils | 60-80 nmol/mg beta-amyloid | 1 probe:3-4 beta-amyloid | Much less binding was observed | 60 | 
CNc1ccc(-c2nc3ccc(O)cc3s2)cc1 [Formula I, 2-(4-methylamino)phenylbenzothiazol-6-ol, reference compound] |  |  |  |  |  |  |  |  | 3
O=C(Nc1ccc(O)c(C(=O)O)c1)c1ccc(-c2ccc(C(=O)Nc3ccc(O)c(C(=O)O)c3)cc2)cc1 [Formula III] | did not compete |  |  |  |  |  |  | 1 to 7 | 82
